Measurements published in PubChem BioAssay AID1963840 (Molecular Pharmacology Branch, DTP, NCI, 2024).
“And” between values parts separate entries of the source, which are not always exact repeats. Identical values can stand only once. Each block holds one compound with its values, some of them ahead of it.

Tested on: 695427-040-R-J1-PDC complex spheroid viability
Assay: Anticancer human tumor 695427-040-R-J1-PDC patient-derived colon adenocarcinoma cell line growth inhibition [POLQ]
Conditions: for viability, T/C: stronger effect = lower value
Experimental: Multicellular complex tumor spheroid response to Polymerase (POL) inhibitors (novobiocin, ART-558, RP6685) in combination with a variety of drugs and investigational agents in selected tumor cell lines
The POL inhibitors (novobiocin, ART-558, and RP6685) were evaluated both individually and in combination with standard of care and investigational anticancer small molecules within a complex spheroid model of solid tumors. . Complex spheroids include a stromal component modeled by human endothelial cells (HUVEC) and fibroblasts modeled by human mesenchymal stem cells (MSCs). The concentration ranges selected for each drug and investigational agent were based upon clinically achievable concentrations if the clinical Cmax of the agent was known.
Compounds. The drugs and investigational agents: novobiocin (NSC847541), ART-558 (NSC835418), RP-6685 (NSC848927), peposertib (NSC802822), ceralasertib (NSC780249), elimusertib (NSC800525), camonsertib (NSC841442), AZD-1390 (NSC803789), olaparib (NSC753686), talazoparib (NSC767125), rucaparib (NSC756644), sotorasib (NSC818433), MRTX-1133 (NSC836407), SN-38 (NSC673596), topotecan (NSC609699), epotoside (NSC141540), doxorubicin (NSC123127), gemcitabine (NSC613327), 5-fluorouracil (NSC19893), paclitaxel (NSC125973), vemurafenib (NSC761431), MSA-2 (NSC828583), SN-011 (NSC837082), adavosertib (NSC754352), prexasertib (NSC758257), carboplatin (NSC241240) and oxaliplatin (NSC266046), were obtained from the National Cancer Institute (NCI) Developmental Therapeutics Program Chemical Repository (21). The FDA-approved anticancer drug set is available from the Developmental Therapeutics Program at https://dtp.cancer.gov/organization/dscb/obtaining/. […] The stock solutions were prepared in dimethyl sulfoxide (DMSO, Sigma-Aldrich, St. Louis, MO, cat. D2650), except for the platinum compounds which were prepared in saline (Quality Biological, Gaithersburg, MD, cat. 114-055-101), at 800-fold the tested concentration and stored at -70 degrees C prior to their use. All drugs and investigational agents were tested over a range starting from a high concentration at or near the clinical Cmax and decreasing in half-log increments. If the clinical Cmax for an agent had not been determined, the highest concentration tested was 10 microM, except for SN-38, which was tested at a high concentration of 1 microM.
Cell Culture. All cells were maintained in an incubator at 37 degrees C and 5% CO2 with 95% humidity. The PDC lines were cultured according to standard operating procedures established by the NCI PDMR (https://pdmr.cancer.gov). Table 3 of the manuscript, lists the cell lines along with the number of the three cell types plated to form the mct-spheroids and media for tumor cell growth. After thawing, all PDC lines, except 997537-175-T-J1-PDC and 415267-285-R-J2-PDC, were cultured in Matrigel-coated flasks prepared with a working solution of 1X Ham's F-12 nutrient mix, without supplementation (Thermo Fisher Scientific, cat. 11765054), 100 U/mL penicillin-streptomycin (Thermo Fisher Scientific, cat. 15140122), and 2.5% Matrigel (Corning Inc., Corning, NY, cat. 354248) for the first three passages. The two PDC lines 997537-175-T-J1-PDC and 415267-285-R-J2-PDC were cultured on uncoated flasks. The 857933-349-R-J2-PDC line was cultured in 6C/Colon 1B media containing advanced DMEM/F-12 (Thermo Fisher Scientific, cat. 12634028), 10 mM HEPES (Thermo Fisher Scientific, cat. 15630080), 1X GlutaMAX supplement (Thermo Fisher Scientific, cat. 35050061), 0.1 mg/mL primocin (InvivoGen, San Diego, CA, cat. ant-pm-2), 10% defined fetal bovine serum, heat inactivated (HyClone Laboratories Inc., Logan, UT, cat. SH30070.03HI), 50% L-WRN conditioned media (ATCC, cat. CRL-3276), 1.25 mM N-Acetyl-L-cysteine (Sigma-Aldrich, cat. A9165), 10 mM nicotinamide (Sigma-Aldrich, cat. N0636), 1X B-27 supplement (Thermo Fisher Scientific, cat. 17504044), 1X N-2 supplement (Thermo Fisher Scientific, cat. […]
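Further: spheroids exposed to compounds for seven days.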
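Wherever viability, T/C is given: 100% = DMSO vehicle control viability.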

SMILES: C=CCn1c(=O)c2cnc(Nc3ccc(N4CCN(C)CC4)cc3)nc2n1-c1cccc(C(C)(C)O)n1
viability, T/C (compound 0.00316 µM): 99.5% and 88.8% and 103%
viability, T/C (compound 0.01 µM): 90.1% and 92% and 91.7%
viability, T/C (compound 0.0316 µM): 98.5% and 104% and 103%
viability, T/C (compound 0.1 µM): 103% and 99.2% and 95.7%
viability, T/C (compound 0.316 µM): 86.5% and 95.4% and 93.7%
viability, T/C (compound 1 µM): 77.5% and 73.7% and 82%
IC50 (curve of compound): > 1 µM

SMILES: COc1ccc([C@@H](O)c2cc(-c3ncnc4cc(N5CCOCC5)ccc34)c(F)cc2Cl)nn1 + Cc1cccc(N(C)C(=O)C2C(O)CCN2c2nc(C)cc(C(F)(F)F)c2C#N)c1
IC50 (curve of first compound, second compound 0.0316 µM): > 10 µM
IC50 (curve of first compound, second compound 0.1 µM): > 10 µM
IC50 (curve of first compound, second compound 0.316 µM): > 10 µM
IC50 (curve of first compound, second compound 1 µM): > 10 µM
IC50 (curve of first compound, second compound 3.16 µM): 9.23 µM
IC50 (curve of first compound, second compound 10 µM): > 10 µM
viability, T/C (second compound 0.0316 µM, first compound 0.0316 µM): 98.6%
viability, T/C (second compound 0.0316 µM, first compound 0.1 µM): 94.8%
viability, T/C (second compound 0.0316 µM, first compound 0.316 µM): 101%
viability, T/C (second compound 0.0316 µM, first compound 1 µM): 99%
viability, T/C (second compound 0.0316 µM, first compound 3.16 µM): 77.5%
viability, T/C (second compound 0.0316 µM, first compound 10 µM): 57.6%
viability, T/C (second compound 0.1 µM, first compound 0.0316 µM): 103%
viability, T/C (second compound 0.1 µM, first compound 0.1 µM): 103%
viability, T/C (second compound 0.1 µM, first compound 0.316 µM): 97.4%
viability, T/C (second compound 0.1 µM, first compound 1 µM): 91.8%
viability, T/C (second compound 0.1 µM, first compound 3.16 µM): 85.2%
viability, T/C (second compound 0.1 µM, first compound 10 µM): 57.3%
viability, T/C (second compound 0.316 µM, first compound 0.0316 µM): 109%
viability, T/C (second compound 0.316 µM, first compound 0.1 µM): 104%
viability, T/C (second compound 0.316 µM, first compound 0.316 µM): 103%
viability, T/C (second compound 0.316 µM, first compound 1 µM): 92.7%
viability, T/C (second compound 0.316 µM, first compound 3.16 µM): 78.5%
viability, T/C (second compound 0.316 µM, first compound 10 µM): 53.6%
viability, T/C (second compound 1 µM, first compound 0.0316 µM): 100%
viability, T/C (second compound 1 µM, first compound 0.1 µM): 93.8%
viability, T/C (second compound 1 µM, first compound 0.316 µM): 94%
viability, T/C (second compound 1 µM, first compound 1 µM): 92.1%
viability, T/C (second compound 1 µM, first compound 3.16 µM): 84.1%
viability, T/C (second compound 1 µM, first compound 10 µM): 52.3%
viability, T/C (second compound 3.16 µM, first compound 0.0316 µM): 92%
viability, T/C (second compound 3.16 µM, first compound 0.1 µM): 101%
viability, T/C (second compound 3.16 µM, first compound 0.316 µM): 95.9%
viability, T/C (second compound 3.16 µM, first compound 1 µM): 87.4%
viability, T/C (second compound 3.16 µM, first compound 3.16 µM): 74.5%
viability, T/C (second compound 3.16 µM, first compound 10 µM): 48.1%
viability, T/C (second compound 10 µM, first compound 0.0316 µM): 97.2%
viability, T/C (second compound 10 µM, first compound 0.1 µM): 79.7%
viability, T/C (second compound 10 µM, first compound 0.316 µM): 83.8%
viability, T/C (second compound 10 µM, first compound 1 µM): 78.9%
viability, T/C (second compound 10 µM, first compound 3.16 µM): 71.6%
viability, T/C (second compound 10 µM, first compound 10 µM): 51%

SMILES: CNCc1ccc(-c2[nH]c3cc(F)cc4c3c2CCNC4=O)cc1
viability, T/C (compound 0.0316 µM): 102% and 100% and 94.1%
viability, T/C (compound 0.1 µM): 96.6% and 99.5% and 98.4%
viability, T/C (compound 0.316 µM): 106% and 104% (2×)
viability, T/C (compound 1 µM): 104% and 102% and 105%
viability, T/C (compound 3.16 µM): 108% and 118% and 102%
viability, T/C (compound 10 µM): 102% and 111% and 103%
IC50 (curve of compound): > 10 µM

SMILES: CCc1cc2c(N3CCc4c(cc(Cn5ccnc5)cc4-c4cn(C)nc4C(F)(F)F)C3=O)ccnc2c(OC)n1
viability, T/C (compound 0.0316 µM): 114% and 91.3% and 93.8%
viability, T/C (compound 0.1 µM): 97.6% and 96% and 98.8%
viability, T/C (compound 0.316 µM): 110% and 88.2% and 101%
viability, T/C (compound 1 µM): 106% and 95.6% and 101%
viability, T/C (compound 3.16 µM): 112% (2×) and 103%
viability, T/C (compound 10 µM): 103% and 96% and 100%
IC50 (curve of compound): > 10 µM

IC50 (compound alone, run of 10/31/2023): > 10 µM
IC50 (compound alone, run of 11/06/2023): > 10 µM
SMILES: Cc1cccc(N(C)C(=O)C2C(O)CCN2c2nc(C)cc(C(F)(F)F)c2C#N)c1 (stereo unspecified)
viability, T/C (compound 0.0316 µM): 102% [middle of 13 runs]
viability, T/C (compound 0.1 µM): 101% [middle of 13 runs]
viability, T/C (compound 0.316 µM): 100% [middle of 13 runs]
viability, T/C (compound 1 µM): 100% [middle of 13 runs]
viability, T/C (compound 3.16 µM): 99% [middle of 13 runs]
viability, T/C (compound 10 µM): 100% [middle of 13 runs]
